Results taken from paper PMC12692346, “Imidazolinium-Based NHC–Metal Complexes Overcome Both Cancer Multidrug Resistance and Cisplatin Resistance In Vitro” (International Journal of Molecular Sciences, 2025).

Legend:
[1] = tested on: Mes-Sa mCherry uterine sarcoma cell line; test: Triple coculture fluorescence cytotoxicity test, parental line; type: cell-based, human; settings: 144 h incubation, fluorescence readout
Method: (§1) All synthesized complexes and representatives of the respective ligands (Lb, Lc, SIPr, IPr) were tested in a triple coculture of uterine sarcoma cell lines, consisting of the parental Mes-Sa cell line, and its MDR derivatives Mes-Sa/B1 and Mes-Sa/Dx5, transfected or selected in doxorubicin to overexpress P-glycoprotein, respectively (Figure 2a–c, Table S2). Each cell line expresses a distinct fluorescent protein (mCherry, mOrange, and eGFP, respectively), and the total fluorescence of a well is proportional to the cell number, allowing the assessment of compound cytotoxicity.
(§2) In a triple coculture system, cell lines expressing different fluorescent proteins were seeded in the same well. Cell lines (Mes-Sa mCherry, Mes-Sa/B1 mOrange, Mes-Sa/Dx5 eGFP [25]) were admixed and seeded on 384-well plates at a density of 3 × 800 cells/well (1:1:1 ratio), resulting in an overall total of 2400 cells. The next day, serially diluted compounds were added to the wells. Liquid handling was managed by a Hamilton StarLet pipetting robot. After 144 h of incubation, the fluorescence of mCherry (ex/em: 585/610 nm), mOrange (ex/em: 545/567 nm) and eGFP (ex/em: 485/510 nm) was recorded with an EnSpire plate reader (PerkinElmer, Waltham, MA, USA).
(§3) pIC50 values derived from both co- and monoculture systems were determined by a custom program written in C# [25], then average and standard deviations were calculated and transformed to IC50 values. Every compound was tested in at least 3 independent experiments in triplicates.

Mes-Sa/B1 mOrange = test: Triple coculture fluorescence cytotoxicity test, ABCB1-transfected MDR line; type: cell-based, human; settings: for IC50: triple coculture, 144 h incubation, fluorescence readout; for RR_B1 resistance ratio (IC50_MDR line / IC50_parental line) of Mes-Sa/B1: Mes-Sa/B1 vs Mes-Sa
Method: as §1, §2, §3

Mes-Sa/Dx5 eGFP = test: Triple coculture fluorescence cytotoxicity test, doxorubicin-selected MDR line; type: cell-based, human; settings: for IC50: triple coculture, 144 h incubation, fluorescence readout; for RR_Dx5 resistance ratio (IC50_MDR line / IC50_parental line) of Mes-Sa/Dx5: Mes-Sa/Dx5 vs Mes-Sa
Method: as §1, §2, §3

[2] = tested on: CST murine breast cancer cell line; test: Monoculture PrestoBlue cytotoxicity test, CST; type: cell-based, mouse; settings: 120 h exposure
Method: (§4) CST, a drug-naïve murine breast cancer cell line, and cisplatin-resistant cells CST-2/3 were seeded in monoculture into 384-well plates (Corning Inc., Corning, NY, USA) at a density of 2500 cells per well using automated liquid-handling. The cells were preincubated for 24 h to ensure adherence, followed by the addition of serially diluted compounds to a final well volume of 60 µL. Following 120 h of continuous drug exposure, cell viability was quantified using the PrestoBlue viability assay (Thermo Fisher Scientific, Waltham, MA, USA) after 1 h incubation at 555 nm excitation and 585 nm emission wavelengths.
as §3

[3] = tested on: CST-2/3 cisplatin-resistant cells; test: Monoculture PrestoBlue cytotoxicity test, cisplatin-resistant CST-2/3; type: cell-based, mouse; settings: for RR_CST resistance ratio (IC50_CST-2/3 / IC50_CST): CST-2/3 vs CST; for IC50: monoculture, 120 h exposure, PrestoBlue
Method: as §4, §3

[4] = tested on: MSCL-1 mesenchymal stem cell-like cell line; test: PrestoBlue cytotoxicity test, non-malignant MSCL-1; type: cell-based, human; settings: for IC50: 72 h treatment, PrestoBlue; for MSCL-1 / CST ratio (IC50_MSCL-1/IC50_cancer line): MSCL-1 vs CST; for MSCL-1 / Mes-Sa ratio (IC50_MSCL-1/IC50_cancer line): MSCL-1 vs Mes-Sa
Method: The MSCL-1 line was seeded on 96-well plates with 15,000 cells/well density, and the following day, it was treated with the compounds for 72 h, when cell viability was assessed using a PrestoBlue viability assay.
as §3

Mes-Sa cells = test: H2DCFDA intracellular ROS assay in Mes-Sa; type: cell-based, human; settings: 25 µM, 4 h incubation; for increase in intracellular ROS: vs 0 h
Method: (§5) Intracellular ROS production was assessed by the H2DCFDA—Cellular ROS Assay Kit (ab113851, Abcam, Cambridge, UK) according to the manufacturer’s instructions. Briefly, 20,000 cells (Mes-Sa and CST) were seeded on 96-well plates 1 day prior to the experiment. The cells were washed and incubated with H2DCFDA solution for 45 min in the dark. Following an additional washing step, test compounds were added in complete, phenol red free medium (FluoroBrite™, Thermo Fisher Scientific), at a final concentration of 25 µM. Fluorescence of 2′,7′-dichlorofluorescein (DCF) was measured at 484 nm/535 nm excitation/emission wavelengths. Data were normalized to baseline (0 h) values and represent at least three independent experiments.

CST cells = test: H2DCFDA intracellular ROS assay in CST; type: cell-based, mouse; settings: 25 µM, 4 h incubation; for increase in intracellular ROS: vs 0 h
Method: as §5

Structure (SMILES) | RR_B1 resistance ratio (IC50_MDR line / IC50_parental line) of Mes-Sa/B1 (Mes-Sa/B1 mOrange) | RR_Dx5 resistance ratio (IC50_MDR line / IC50_parental line) of Mes-Sa/Dx5 (Mes-Sa/Dx5 eGFP) | RR_CST resistance ratio (IC50_CST-2/3 / IC50_CST) [3] | MSCL-1 / CST ratio (IC50_MSCL-1/IC50_cancer line) [4] | MSCL-1 / Mes-Sa ratio (IC50_MSCL-1/IC50_cancer line) [4] | intracellular ROS induction compared to serum-containing medium (in words) (Mes-Sa cells) | intracellular ROS induction compared to untreated control (in words) (CST cells) | IC50 [1] [nM] | IC50 (Mes-Sa/B1 mOrange) [nM] | IC50 (Mes-Sa/Dx5 eGFP) [nM] | IC50 [2] [nM] | IC50 [3] [nM] | IC50 [4] [nM] | increase in intracellular ROS (Mes-Sa cells) [%] | increase in intracellular ROS (CST cells) [%] | further results
CC(C)c1cccc(C(C)C)c1N1C=[N+](c2c(C(C)C)cccc2C(C)C)CC1 [SIPr, reference compound] | 10.9 | 20.9 | 3.4 | 2.0 | 2.3 | did not significantly induce | No significant ROS induction |  |  |  |  |  |  |  |  | IC50 ([1]; Homo sapiens, MES-SA): 5050 nM; IC50 (Mes-Sa/B1 mOrange; Homo sapiens, MES-SA): 55000 nM; IC50 (Mes-Sa/Dx5 eGFP; Homo sapiens, MES-SA/Dx5): 106000 nM; IC50 ([2]; Mus musculus): 5920 nM; IC50 ([3]; Mus musculus): 20300 nM; IC50 ([4]; Homo sapiens): 11700 nM
CC(C)c1cccc(C(C)C)c1N1CCN(c2c(C(C)C)cccc2C(C)C)[C]1=[Cu+]=[C]1N(c2c(C(C)C)cccc2C(C)C)CCN1c1c(C(C)C)cccc1C(C)C.F[B-](F)(F)F [Compound 9a] | 11.6 | 14.3 | 2.2 | 7.3 | 11.2 |  |  | 72 | 840 | 1040 | 110 | 240 | 810 | 99 | 61 | 
CC(C)c1cccc(C(C)C)c1N1CCN(c2c(C(C)C)cccc2C(C)C)[C]1=[Ag][Cl] [Compound 6a] | 1.6 | 1.5 | 1.7 | 2.3 | 2.0 | did not significantly induce |  | 610 | 980 | 890 | 530 | 880 | 1240 |  | 107 | 
CC(C)c1cccc(C(C)C)c1N1CCN(c2c(C(C)C)cccc2C(C)C)[C]1=[Au][Cl] [Compound 7a] | 1.7 | 2.2 | 1.0 | 2.1 | 3.0 | did not significantly induce | No significant ROS induction | 8450 | 14400 | 18500 | 12200 | 12600 | 25700 |  |  | 
CC(C)c1cccc(C(C)C)c1N1CCN(c2c(C(C)C)cccc2C(C)C)[C]1=[Ag+]=[C]1N(c2c(C(C)C)cccc2C(C)C)CCN1c1c(C(C)C)cccc1C(C)C.F[B-](F)(F)F [Compound 10a] | 79.5 | 162.2 | 2.4 | 6.1 | 15.7 | did not significantly induce | No significant ROS induction | 36 | 2840 | 5790 | 92 | 218 | 560 |  |  | 
CC(C)c1cccc(C(C)C)c1N1CCN(c2c(C(C)C)cccc2C(C)C)[C]1=[Cu][Cl] [Compound 5a] | 1.0 | 1.0 | 1.5 | 6.5 | 2.7 |  |  | 420 | 440 | 430 | 180 | 270 | 1150 | 72 | 88 | 
